According to patent US10464920B2, “Vicinal primary diamines associated with metal and/or free radical chelation motifs, and active against carbonyl and oxidative stress, and use thereof” (UNIVERSITE AMIENS PICARDIE JULES VERNE, priority 2015, dated 2019):

Legend:
[1] = tested on: low-density lipoproteins (LDLs); experiment: Antiradical properties: inhibition of lipid peroxidation in AAPH-induced oxidation of LDLs; type: biochemical; details: for anti-radical properties compared with Dap-Pip and vitamin E: concentrations from 1 to 10 μM; for antioxidant effect: concentrations ranging from 1 to 100; for antioxidant properties: low concentrations of about 1 μM
Experimental: The antiradical properties of the various compounds are determined by inhibition of the lipid peroxidation in the in vitro model of the oxidation of the low-density lipoproteins (LDLs) (Free Radic. Biol. Med., 1992, 13, 341-390). The lipid peroxidation is initiated by the attack by free radicals of a double bond of a polyunsaturated fatty acid present in the LDLs. […] Once initiated, the oxidation of the LDLs is a chain reaction of lipid peroxidation generated by the free radicals. The oxidation in vitro of the LDLs is induced at 37° C. by the adding of the water-soluble compound 2,2′-Azobis(2-methylpropionamidine)dihydrochloride (AAPH), which generates free radicals during the spontaneous thermal breakdown thereof
Briefly, the oxidation, carried out in a 96-well plate, is induced at 37° C. by adding 20 μL of a solution of AAPH at 2 mM in D-PBS at 160 μL of LDL (100 μg/mL) in the presence or absence of 20 μL of the various solutions of the compounds to be tested dissolved in D-PBS (0.1 to 100 μM in final concentrations). The LDLs alone without adding AAPH are used as a negative control. Each oxidation is carried out in double. During the oxidation, the formation of the conjugated dienes is followed by the measurement of the optical density at 234 nm every 10 minutes for 8 h at 37° C. using a temperature-controlled TECAN spectrophotometer. The vitamin E (α-tocopherol) which is a powerful antioxidant recognised in this in vitro model is used as a reference molecule (J. Nutr. Biochem., 2012, 23, 845-51).

[2] = tested on: human fibroblasts (MRC-5); experiment: Cytotoxicity, cellular viability (CCK-8/WST-8) on MRC-5; type: cell-based
Experimental: The cellular viability is evaluated by a colorimetric method based on the detection of the conversion of a salt of the tetrazolium (WST-8) by the metabolically active cells (CCK-8 kit, Sigma, Lyons, France) (Molecules, 2014, 19(8), 12048-12064; J. Pharmacol. Toxicol. Methods., 2007, 56(1), 58-62). Living cells have mitochondrial dehydrogenases that reduce the WST-8 (2-(2-methoxy-4-nitrophenyl)-3-(4-nitrophenyl)-5-(2,4-disulfophenyl)-2H-tetrazolium), monosodium salt) to formazan of an orange colour, which dissolves directly in the culture medium in the presence of 1-Methoxy PMS (1-methoxy-5-methylphenazinium methyl sulphate). After an incubation for 1 h at 37° C., the absorbance of the formazan is measured at 450 nm. The absorbance is directly proportional to the number of living cells.
Briefly, the cells are inoculated in 96-well plates at a rate of 5.10^3 cells per well in 100 μL of the suitable medium until subconfluence. The cells are then washed with D-PBS, then treated with various concentrations (10 μM, 100 μM) of the products to be tested in triplicates for 24 and 48 h. A positive control is carried out with 10% of DMSO. The CCK-8 (10 μL) solution is then added to each well for an incubation for 1 h at 37° C. The measurement of the absorbance is taken at 450 nm using a Perkin Elmer 2103 Envision® microplate reader.
The viability of the cells is expressed as a % of the control (untreated cells) by the mean±standard deviation of triplicates forming a representative experiment or of three independent experiments conducted in triplicate.

[3] = ORACFL test (Oxygen Radical Absorbance Capacity) using fluorescein/AAPH; type: physicochemical; details: compounds at 10 μM; for ORACFL: mean ± SEM of three independent experiments in triplicate
Experimental: The antioxidant properties of the compounds according to the invention were evaluated using a ORACFL test using fluorescein (J. Agric. Food Chem., 2004 52, 48-54; J. Agric. Food Chem., 2005, 53, 4290-4302). As such, peroxide radicals, generated in the presence of AAPH (2,2′-azobis(2-methylpropionamidine)dihydrochloride) at 37° C., react with this fluorescent sensor in order to give a non-fluorescent product. The protective effect of the test compounds can then be determined by following the decay curve of the fluorescence of the fluorescein over time and be measuring the area under the curve (AUC) of the sample in relation to that of a control corresponding to an absence of antioxidant.
The trolox (6-hydroxy-2,5,7,8-tetramethylchroman-2-carboxylic acid), a water-soluble analogue of vitamin E, is used as a standard for calculating the antioxidant capacity (ORACFL) of the compounds tested at 10 μM, expressed in […] of tested compound. This value is as such obtained using the straight-line calibration equation giving the area under the curve according to the various concentrations of trolox (Bioorg. Med. Chem., 2015, 23, 1135-1148) (FIG. 11).
A solution of fluorescein (FL) (12 nM; 150 μL) is introduced into a black 96-well plate (Dutscher, Brumath, France). The compounds to be tested (1-20 μM; 25 μL) or trolox (1-50 μM; 25 μL) dissolved in D-PBS are added into each well. After equilibration of the plate during an incubation at 37° C. for a minimum of 30 min, the radical reactions are initiated using a solution of AAPH prepared extemporaneously (30 mM; 25 μL). The fluorescence (λEx: 485 nm; λEm: 520 nm) is measured every 90 seconds for 60 cycles using a temperature-controlled Tecan Infinite® 200 PRO microplate reader (measurements taken in triplicates during three independent experiments).

[4] = lower concentrations, 0.1 to 10 μM
[5] = MRC-5, 10 μM, 24 h of treatment
[6] = MRC-5, 10 μM, 48 h of treatment
[7] = MRC-5, 100 μM, 24 h of treatment
[8] = MRC-5, 100 μM, 48 h of treatment

| SMILES | antioxidant / pro-oxidant behaviour ([1]; concentrations ranging from 25 to 100) | antioxidant / pro-oxidant behaviour [1, 4] | viability of the cells as a percentage of the untreated cells [2, 5] [%] | viability of the cells as a percentage of the untreated cells [2, 6] [%] | viability of the cells as a percentage of the untreated cells [2, 7] [%] | viability of the cells as a percentage of the untreated cells [2, 8] [%] | ORACFL [3] [μmol TE/μmol] | anti-radical properties compared with Dap-Pip and vitamin E [1] | antioxidant / pro-oxidant behaviour ([1]; concentrations ranging from 50 to 100) | antioxidant capacity (ORACFL), in words [3] | antioxidant effect [1] | antioxidant properties [1] |
| --- | --- | --- | --- | --- | --- | --- | --- | --- | --- | --- | --- | --- |
| COc1cc(/C=C/C(=O)N2CCN(C(=O)CCC(N)CN)CC2)ccc1O (centres unmarked) [Compound 29a, (E)-4,5-diamino-1-(4-(3-(4-hydroxy-3-methoxyphenyl)acryloyl)piperazin-1-yl)pentan-1-one] | antioxidants | pro-oxidants | 103 | 104 | 99 | 103 | 2.05 ± 0.23 |  |  |  |  |  |
| NCC(N)CCCCNC(=O)c1cc(O)c(O)c(O)c1 (centres unmarked) [Compound 30b, N-(5,6-diaminohexyl)-3,4,5-trihydroxybenzamide] |  | highly antioxidant | 98 | 92 | 101 | 100 | 2.59 ± 0.35 | higher than those of the 2nd generation Dap-Pip derivative, and even those of vitamin E | highly pro-oxidant | most active |  |  |
| NCC(N)CCCNC(=O)CCn1cccc(O)c1=O (centres unmarked) [Compound 37a, N-(4,5-diaminopentyl)-3-(3-hydroxy-2-oxopyridin-1(2H)-yl)propanamide] |  |  | 112 | 107 | 124 | 105 | 0.58 ± 0.02 | higher than those of the 2nd generation Dap-Pip derivative, and even those of vitamin E |  |  | increasing antioxidant effect | best antioxidant properties |
| NCC(N)CCCCNC(=O)CCn1cccc(O)c1=O (centres unmarked) [Compound 37b, N-(5,6-diaminohexyl)-3-(3-hydroxy-2-oxopyridin-1(2H)-yl)propanamide] |  |  | 113 | 103 | 113 | 101 | 0.99 ± 0.09 |  |  |  |  |  |
| NCC(N)CCC(=O)NCCCn1cccc(O)c1=O (centres unmarked) [Compound 37c, 4,5-diamino-N-(3-(3-hydroxy-2-oxopyridin-1(2H)-yl)propyl)pentanamide] |  |  | 97 | 94 | 89 | 90 | 1.03 ± 0.03 | higher than those of the 2nd generation Dap-Pip derivative, and even those of vitamin E |  | most active | increasing antioxidant effect | best antioxidant properties |
